# In patent publication US9809604B2, “DGAT1 inhibitor and preparation method and use thereof” (Qingdao Huanghai Pharmaceutical Co., Ltd., priority 2013, dated 2017):
# Where two headings read alike, the source gives them in different places.
# Experiments:
# [1] = target: T1, DGAT1 (Homo sapiens, UniProt O75907); experiment: Human DGAT1 IC50 enzyme assay (Flashplate, 14C-labeled acyl-CoA); format: biochemical; set-up: made in house
# T1 sequence (O75907 1-488): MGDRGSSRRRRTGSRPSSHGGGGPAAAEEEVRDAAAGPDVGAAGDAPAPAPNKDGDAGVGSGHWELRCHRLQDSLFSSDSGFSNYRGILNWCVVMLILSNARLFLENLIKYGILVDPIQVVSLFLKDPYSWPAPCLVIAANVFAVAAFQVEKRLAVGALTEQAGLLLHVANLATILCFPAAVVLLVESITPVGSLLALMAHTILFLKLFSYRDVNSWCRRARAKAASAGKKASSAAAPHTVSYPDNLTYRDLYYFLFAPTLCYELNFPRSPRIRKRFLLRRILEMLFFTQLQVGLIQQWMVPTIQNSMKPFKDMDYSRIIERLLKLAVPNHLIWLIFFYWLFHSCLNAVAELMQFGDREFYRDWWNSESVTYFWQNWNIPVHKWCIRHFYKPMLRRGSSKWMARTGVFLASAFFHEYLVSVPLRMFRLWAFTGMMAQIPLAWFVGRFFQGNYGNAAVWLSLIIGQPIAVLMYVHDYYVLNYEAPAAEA
# Procedure: The ability of compounds to inhibit DGAT enzyme activity is determined by calculating IC50 values of test compounds. Ki values of DGAT1 are calculated as follows: Cheng-Prusoff equation: Ki=IC50/(1+[S]/Km)
# (1) Human DGAT1 IC50 (nM) Experiment
# Human DGAT1 activity was determined as follows:
# Expressing human DGAT1 enzyme, used diacylglycerol and 14C-labeled acyl-CoA as the substrate, choose PE Company Flashplate testing board to build DGAT1 enzyme reaction system. 14C-labeled acyl-CoA binds to diacylglycerol by covalent bonding after enzymology reaction, and generates the product of 14C-labeled triglyceride. 14C-labeled acyl-CoA substrate is dissolved in reaction solution and 14C-labeled triglyceride product combine with phospholipids of Flashplate plate bottom layer, thus effectively separate labeled substrates and products. The radioactive of 14C-labeled triglyceride which is combined with phospholipid layer is counted, and the potencies of DGAT-1 inhibition for the compounds are determined by calculating the IC50 values.
# [2] = Plasma pharmacokinetics in male SD rats; format: in vivo; conditions: male, SD, plasma, rat
# Procedure: (3) Pharmacokinetics of Test Compounds
# The purpose of this study is to determine the plasma pharmacokinetics of male SD rats. Two animals will receive a solution of test article in vehicle by single intravenous bolus via tail vein; the dosage is 2 mg/kg. Blood samples are taken at specified time points (0, 0.0833, 0.25, 0.5, 1, 2, 4, 7, 24 h) after dosing. Another two animals will receive a solution or suspension of TA in vehicle by oral gavage at 10 mg/kg. The schedule for sample collection is 0.5, 1, 2, 3, 4, 6, 24 h after dosing. A LC/MS/MS method is used to measure the concentration of test compound in plasma. Non-compartmental pharmacokinetic analysis is performed on the plasma concentration-time data. PK parameters of calculations are done using Phoenix WinNonlin. 6.2.1 software program.
# [3] = average of first and second, read-out: hDGAT1 IC50(nM) Average
# [4] = first determination, read-out: hDGAT1 IC50(nM) First
# [5] = second determination, read-out: hDGAT1 IC50(nM) Second
SMILES,"IC50 [1, 3]","IC50 [1, 4]","IC50 [1, 5]","AUC(0-t) ([2]; iv, 1.78-2.06 mg/kg as printed in each cell, read-out: AUC0-1 (ng · n/mL))","bioavailability ([2]; oral, 10 mg/kg)"
"CCC(C(=O)O)n1cc(-c2ccc(N3CCOc4ncnc(N)c4C3=O)cc2C)cn1 (centres unmarked) [Compound 64, 2-(4-(4-(4-amino-5-oxo-7,8-dihydropyrimido [5,4-f][1,4]oxazepin-6(5H)-yl)-2-methylphenyl)-1H-pyrazol-1-yl)butanoic acid]",57.6 nM,38.7 nM,76.5 nM,–,–
"CC(C)C(C(=O)O)n1cc(-c2ccc(N3CCOc4ncnc(N)c4C3=O)cc2Cl)cn1 (centres unmarked) [Compound 65, 2-(4-(4-(4-amino-5-oxo-7,8-dihydropyrimido [5,4-f][1,4]oxazepin-6(5H)-yl)-2-chlorophenyl)-1H-pyrazol-1-yl)-3-methylbutanoic acid]",41.5 nM,39 nM,44.1 nM,–,–
"Cc1cc(N2CCOc3ncnc(N)c3C2=O)cc(C)c1-c1cnn(C(C)(C)C(=O)O)c1 [Compound 66, 2-(4-(4-(4-amino-5-oxo-7,8-dihydropyrimido [5,4-f][1,4]oxazepin-6(5H)-yl)-2,6-dimethylphenyl)-1H-pyrazol-1-yl)-2-methylpropanoic acid]",42.6 nM,47.1 nM,38.2 nM,–,–
"Cc1cc(N2CCOc3ncnc(N)c3C2=O)cc(C)c1-c1cnn(CC(=O)O)c1 [Compound 67, 2-(4-(4-(4-amino-5-oxo-7,8-dihydropyrimido [5,4-f][1,4]oxazepin-6(5H)-yl)-2,6-dimethylphenyl)-1H-pyrazol-1-yl)acetic acid]",53.2 nM,56.1 nM,50.3 nM,–,–
"Cc1cc(N2CCOc3ncnc(N)c3C2=O)cc(C)c1-c1cnn(CCC(=O)O)c1 [Compound 70, 3-(4-(4-(4-amino-5-oxo-7,8-dihydropyrimido [5,4-f][1,4]oxazepin-6(5H)-yl)-2,6-dimethylphenyl)-1H-pyrazol-1-yl)propanoic acid]",20.4 nM,27.6 nM,13.2 nM,–,–
"CC(C)(Cn1cc(-c2ccc(N3CCOc4ncnc(N)c4C3=O)cc2Cl)cn1)C(=O)O [Compound 71, 3-(4-(4-(4-amino-5-oxo-7,8-dihydropyrimido [5,4-f][1,4]oxazepin-6(5H)-yl)-2-chlorophenyl)-1H-pyrazol-1-yl)-2,2-dimethylpropanoic acid]",30.6 nM,35.9 nM,25.3 nM,–,–
"Cc1cc(N2CCOc3ncnc(N)c3C2=O)cc(C)c1-c1cn(CC(=O)O)nc1C [Compound 73, 2-(4-(4-(4-amino-5-oxo-7,8-dihydropyrimido [5,4-f][1,4]oxazepin-6(5H)-yl)-2,6-dimethylphenyl)-3-methyl-1H-pyrazol-1-yl)acetic acid]",34.4 nM,24.5 nM,44.3 nM,–,–
Cc1nn(CCC(=O)O)c(C)c1-c1ccc(N2CCOc3ncnc(N)c3C2=O)cc1 [Compound 76],23.5 nM,14.6 nM,32.4 nM,–,–
"Cc1nn(CCC(=O)O)cc1-c1ccc(N2CCOc3ncnc(N)c3C2=O)cc1Cl [Compound 78, 3-(4-(4-(4-amino-5-oxo-7,8-dihydropyrimido [5,4-f][1,4]oxazepin-6(5H)-yl)-2-chlorophenyl)-3-methyl-1H-pyrazol-1-yl)propanoic acid]",54.8 nM,69.2 nM,40.3 nM,–,–
"CCn1cc(-c2ccc(N3CCOc4ncnc(N)c4C3=O)cc2Cl)cn1 [Compound 79, 4-amino-6-(3-chloro-4-(1-ethyl-1H-pyrazol-4-yl)phenyl)-7,8-dihydropyrimido [5,4-f][1,4]oxazepin-5(6H)-one]",52.1 nM,46.4 nM,57.8 nM,–,–
"Cc1cc(N2CCOc3ncnc(N)c3C2=O)cc(C)c1-c1cn(CCC(=O)O)nc1C [Compound 83, 3-(4-(4-(4-amino-5-oxo-7,8-dihydropyrimido [5,4-f][1,4]oxazepin-6(5H)-yl)-2,6-dimethylphenyl)-3-methyl-1H-pyrazol-1-yl)propanoic acid]",45.6 nM,52.8 nM,38.4 nM,–,–
CC(C)(Cn1cc(-c2ccc(N3CCOc4ncnc(N)c4C3=O)cc2Cl)cn1)C(=O)N1CCCC1 [Compound 85],61.7 nM,59.6 nM,63.7 nM,–,–
"Nc1ncnc2c1C(=O)N(c1ccc(-c3cnn(CC4CC4)c3)c(Cl)c1)CCO2 [Compound 87, 4-amino-6-(3-chloro-4-(1-(cyclopropylmethyl)-1H-pyrazol-4-yl)phenyl)-7,8-dihydropyrimido[5,4-f][1,4]oxazepin-5(6H)-one]",46.7 nM,49.3 nM,44.2 nM,–,–
CC(C)(C)Cn1cc(-c2ccc(N3CCOc4ncnc(N)c4C3=O)cc2Cl)cn1 [Compound 88],25.7 nM,27 nM,24.4 nM,–,–
"CN(C)C(=O)C(C)(C)Cn1cc(-c2ccc(N3CCOc4ncnc(N)c4C3=O)cc2Cl)cn1 [Compound 89, 3-(4-(4-(4-amino-5-oxo-7,8-dihydropyrimido [5,4-f][1,4]oxazepin-6(5H)-yl)-2-chlorophenyl)-1H-pyrazol-1-yl)-N,N,2,2-tetramethylpropanamide]",80.7 nM,71.2 nM,90.1 nM,–,–
"CCc1cc(N2CCOc3ncnc(N)c3C2=O)ccc1-c1cnn(CC(C)C)c1 [Compound 90, 4-amino-6-(3-ethyl-4-(1-isobutyl-1H-pyrazol-4-yl)phenyl)-7,8-dihydropyrimido [5,4-f][1,4]oxazepin-5(6H)-one]",60 nM,62 nM,58 nM,–,–
"CC(C)(F)Cn1cc(-c2ccc(N3CCOc4ncnc(N)c4C3=O)cc2Cl)cn1 [Compound 91, 4-amino-6-(3-chloro-4-(1-(2-fluoro-2-methylpropyl)-1H-pyrazol-4-yl)phenyl)-7,8-dihydropyrimido[5,4-f][1,4]oxazepin-5(6H)-one]",20 nM,12.5 nM,27.5 nM,–,–
"Cc1cc(N2CCOc3ncnc(N)c3C2=O)cc(C)c1-c1c(C)nn(CC(F)(F)F)c1C [Compound 93, 4-amino-6-(4-(3,5-dimethyl-1-(2,2,2-trifluoroethyl)-1H-pyrazol-4-yl)-3,5-dimethylphenyl)-7,8-dihydropyrimido[5,4-f][1,4]oxazepin-5(6H)-one]",69.4 nM,64.5 nM,74.2 nM,–,–
"COC(C)(C)Cn1cc(-c2ccc(N3CCOc4ncnc(N)c4C3=O)cc2Cl)cn1 [Compound 94, 4-amino-6-(3-chloro-4-(1-(2-methoxy-2-methylpropyl)-1H-pyrazol-4-yl)phenyl)-7,8-dihydropyrimido[5,4-f][1,4]oxazepin-5(6H)-one]",59.1 nM,63.1 nM,55.1 nM,–,–
"CC(C)(F)Cn1ccc(-c2ccc(N3CCOc4ncnc(N)c4C3=O)cc2Cl)n1 [Compound 95, 4-amino-6-(3-chloro-4-(1-(2-fluoro-2-methylpropyl)-1H-pyrazol-3-yl)phenyl)-7,8-dihydropyrimido[5,4-f][1,4]oxazepin-5(6H)-one]",42.5 nM,32.2 nM,52.9 nM,–,–
"CC(C)Cn1cc(-c2ccc(N3C(=O)c4c(N)ncnc4OC[C@H]3C)cc2Cl)cn1 [Compound 96, (R)-4-amino-6-(3-chloro-4-(1-isobutyl-1H-pyrazol-4-yl)phenyl)-7-methyl-7,8-dihydropyrimido[5,4-f][1,4] oxazepin-5-(6H)-one]",70.5 nM,69.4 nM,71.7 nM,–,–
"Cc1cc(N2CCOc3ncnc(N)c3C2=O)cc(C)c1-c1cn(CC(C)(C)F)nc1C [Compound 97, 4-amino-6-(4-(1-(2-fluoro-2-methylpropyl)-3-methyl-1H-pyrazol-4-yl)-3,5-dimethylphenyl)-7,8-dihydropyrimido[5,4-f][1,4]oxazepin-5(6H)-one]",26.9 nM,30.3 nM,23.4 nM,–,–
"Nc1ncnc2c1C(=O)N(c1ccc([C@H]3CC[C@H](CC(=O)O)CC3)cc1)CCO2 [PF-04620110, reference compound]",–,–,–,2920 ng·h/mL,109%
